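Each compound was tested at five concentrations against cells in 96-well plates for 48 hours. Here, GI50 denotes the concentration required for 50% inhibition of growth. TGI denotes the concentration required for complete inhibition of growth.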
Columns and labels:
Assay in all cases: DTP human tumour cell line panel, 48 h
[1] = test system: NCI-H460 lung
[2] = test system: ACHN renal
[3] = test system: SW-620 colon
[4] = test system: 786-0 renal
[5] = test system: OVCAR-5 ovarian
[6] = test system: PC-3 prostate
[7] = test system: T-47D breast
[8] = test system: M14 melanoma
[9] = test system: SK-MEL-2 melanoma
[10] = test system: HOP-92 NSCLC
[11] = test system: MDA-MB-435
[12] = test system: KM12 colon
[13] = test system: SNB-19 CNS
[14] = test system: SNB-75 CNS
[15] = test system: MDA-MB-231 breast
[16] = test system: SK-MEL-28 melanoma
[17] = test system: A549 NSCLC
[18] = test system: SK-MEL-5 melanoma
[19] = test system: CCRF-CEM leukemia
[20] = test system: UO-31 renal
[21] = test system: RPMI-8226 leukemia
[22] = test system: HT29 colon
[23] = test system: MOLT-4 leukemia
[24] = test system: SF-295 CNS
[25] = test system: OVCAR-4 ovarian
[26] = test system: NCI-H522 lung
[27] = test system: HS 578T breast
[28] = test system: NCI-H226 lung
[29] = test system: HCC-2998 colon

Question: For `COC(=O)[C@H]1[C@@H](O)[C@@]2(O)c3c(OC)cc(OC)cc3O[C@@]2(c2ccc(OC)cc2)[C@@H]1c1ccccc1`, which TGI [1] is on record?
Answer: The TGI was 653 nM.

Question: And the GI50 [2]?
Answer: Its GI50 is 10.2 nM.

Question: What about the TGI [2] of the same compound?
Answer: Its TGI is 166 nM.

Question: And the GI50 [3]?
Answer: Its GI50 is 9.12 nM.

Question: And the TGI [3]?
Answer: The TGI was 2320 nM.

Question: What about the GI50 [4] of the same compound?
Answer: Its GI50 is 45.1 nM.

Question: What about the TGI [4] of the same compound?
Answer: Its TGI is 267 nM.

Question: And the GI50 [5]?
Answer: The GI50 was 40.3 nM.

Question: And the TGI [5]?
Answer: The TGI was 1030 nM.

Question: What about the GI50 [6] of the same compound?
Answer: Its GI50 is 18.6 nM.

Question: And the TGI [6]?
Answer: The TGI was 6250 nM.

Question: And the GI50 [7]?
Answer: The GI50 was 7.22 nM.

Question: And the TGI [7]?
Answer: Its TGI is 103 nM.

Question: And the GI50 [8]?
Answer: Its GI50 is 11.9 nM.

Question: What about the TGI [8] of the same compound?
Answer: Its TGI is 52.2 nM.

Question: What about the GI50 [9] of the same compound?
Answer: Its GI50 is 29.2 nM.

Question: And the TGI [9]?
Answer: The TGI was 89.6 nM.

Question: What about the GI50 [10] of the same compound?
Answer: Its GI50 is 48 nM.

Question: What about the TGI [10] of the same compound?
Answer: Its TGI is 3890 nM.

Question: What about the GI50 [11] of the same compound?
Answer: Its GI50 is 12.1 nM.

Question: And the TGI [11]?
Answer: Its TGI is 626 nM.

Question: And the GI50 [12]?
Answer: Its GI50 is under 10.5 nM.

Question: And the TGI [12]?
Answer: The TGI was 757 nM.

Question: What about the GI50 [13] of the same compound?
Answer: The GI50 was 16.2 nM.

Question: What about the TGI [13] of the same compound?
Answer: Its TGI is 716 nM.

Question: What about the GI50 [14] of the same compound?
Answer: The GI50 was 42.9 nM.

Question: What about the TGI [14] of the same compound?
Answer: The TGI was 1250 nM.

Question: And the GI50 [15]?
Answer: Its GI50 is 32.8 nM.

Question: What about the TGI [15] of the same compound?
Answer: Its TGI is 132 nM.

Question: What about the GI50 [16] of the same compound?
Answer: The GI50 was 26.1 nM.

Question: And the TGI [16]?
Answer: Its TGI is 277 nM.

Question: And the GI50 [17]?
Answer: The GI50 was 8.57 nM.

Question: What about the TGI [17] of the same compound?
Answer: The TGI was 177 nM.

Question: And the GI50 [18]?
Answer: The GI50 was 18.2 nM.

Question: And the TGI [18]?
Answer: The TGI was 81.4 nM.

Question: What about the GI50 [19] of the same compound?
Answer: The GI50 was 14.7 nM.

Question: What about the TGI [19] of the same compound?
Answer: Its TGI is 5690 nM.

Question: And the GI50 [20]?
Answer: The GI50 was under 17.2 nM.

Question: What about the TGI [20] of the same compound?
Answer: The TGI was 129 nM.

Question: And the GI50 [21]?
Answer: Its GI50 is 19.2 nM.

Question: What about the TGI [21] of the same compound?
Answer: The TGI was 339 nM.

Question: And the GI50 [22]?
Answer: Its GI50 is 7.13 nM.

Question: And the TGI [22]?
Answer: Its TGI is 93.5 nM.

Question: And the GI50 [23]?
Answer: The GI50 was 6.22 nM.

Question: And the TGI [23]?
Answer: Its TGI is 488 nM.

Question: What about the GI50 [24] of the same compound?
Answer: The GI50 was 14.1 nM.

Question: What about the TGI [24] of the same compound?
Answer: Its TGI is 126 nM.

Question: What about the GI50 [25] of the same compound?
Answer: The GI50 was 26.6 nM.

Question: What about the TGI [25] of the same compound?
Answer: Its TGI is 659 nM.

Question: And the GI50 [26]?
Answer: The GI50 was 17 nM.

Question: And the TGI [26]?
Answer: The TGI was 106 nM.

Question: What about the GI50 [27] of the same compound?
Answer: Its GI50 is 44.2 nM.

Question: What about the TGI [27] of the same compound?
Answer: Its TGI is 1280 nM.

Question: And the GI50 [28]?
Answer: The GI50 was 11.8 nM.

Question: What about the TGI [28] of the same compound?
Answer: The TGI was 260 nM.

Question: What about the GI50 [29] of the same compound?
Answer: The GI50 was 8.33 nM.

Question: And the TGI [29]?
Answer: The TGI was 205 nM.

Reference: PubChem BioAssay (NCI)
